Data from PMC10290391, “Targeted degradation of ⍺-synuclein aggregates in Parkinson’s disease using the AUTOTAC technology” (Molecular Neurodegeneration, 2023).
Where “and” joins values, the source holds several entries; their conditions need not be identical. Equal values may be shown once. Entries after “also recorded” stand apart in the source; their conditions may differ.

Tests used:
α-syn aggregates = assay: Triton X-100 fractionation assay in SH-SY5Y α-syn A53T cells transduced with α-syn PFFs; format: cell-based, human
Method: Recombinant human α-syn (1–140) were obtained from NKMAX (SNA2001L). In vitro fibrillization was performed by diluting recombinant α-syn monomers to 1 mg/mL in sterile PBS, then incubating at 37 °C with constant agitation at 1,000 rpm for seven days. The fibrillization was verified by thioflavin T and sedimentation assays. The ability to form phospho-α-syn (S129) was also assessed by immunocytochemistry. In addition, to determine whether the generated PFFs act as seeds to accumulate endogenous α-syn, an adenovirus that expresses c-Myc-His-tagged human α-syn (gifted from lab of S.J.L) was used to infect cultured cells at an MOI of 10, followed by a fractionation assay. The administration of PFFs into 293A cells was done with protein delivery reagent (BioPORTER QuikEase Protein Delivery Kit, Sigma) following the provider’s instruction. The mouse α-syn PFFs were obtained from StressMarq (SPR-324). […]
For the separation of Triton X-100 soluble and insoluble fractions for monitoring α-syn, cells were washed with PBS and lysed in Triton X-100 buffer (50 mM Tris / 150 mM NaCl / 100 mM EDTA / 1% Triton X-100, pH 7.6) containing protease and phosphatase inhibitors for 30 min on ice. […] Immunoreactive bands were detected using ECL reagents (Thermo Fisher Scientific, 32,106). […] Densitometry of developed bands was analyzed with ImageJ (NIH, Bethesda).

[1] = test system: high molecular weight α-syn aggregates; assay: Dot blot / filter trap assay for α-syn aggregates in differentiated SH-SY5Y α-syn A53T cells; format: cell-based, human; conditions: 100 nM, 24 h; 450 nm filter
Method: Differentiated SH-SY5Y α-syn A53T cells were treated with 2 μg/ml of a-syn PFFs, and after 24 h cells were treated with 100 nM of ATC161 for 24 h. The cells were lysed in RIPA buffer for 30 min on ice and then centrifuged at 13,000 rpm for 20 min at 4 ℃. The supernatants were aspirated and transferred into a new tube kept on ice. Protein concentration was determined by a BCA assay. The filter trap assay was performed with 5 μg of total protein diluted in 100 μL of lysate. A nitrocellulose membrane (pore size: 0.45 μm) was placed on the filter trap apparatus (96-well Bio-Dot®). Lysates were loaded and allowed to pass through the membrane under vacuum. Aggregated α-syn levels were determined by immunoblotting using an anti-α-syn aggregate antibody [MJFF-14–6-4–2] (1:2000; Abcam, ab209538).

## Fc1ccc(COc2cccc(CNCCOCCOCCNc3cccc(-c4cc(-c5ccc6c(c5)OCO6)n[nH]4)c3)c2)cc1 [ATC161, 3-(3-(benzo[d][1,3]dioxol-5-yl)-1H-pyrazol-5-yl)-N-(2-(2-(2-((3-((4-fluorobenzyl)oxy)benzyl)amino)ethoxy)ethoxy)ethyl)aniline]
α-syn aggregates; Triton X-100 insoluble fraction, read-out: half degradation concentration (DC50) of α-syn aggregates
  DC50: ~100 nM and 100 nM
α-syn aggregates; soluble fraction
  degradation of monomeric α-syn: No apparent degradation; also recorded: no such degradation was observed
[1]
  degradation of high molecular weight α-syn aggregates: induced the degradation of high molecular weight α-syn aggregates
